Target: T1, HCV RNA-dependent RNA polymerase (Hepatitis C virus genotype 1a, UniProt P27958)
T1 construct: HCV RNA-dependent RNA polymerase is encoded in the NS5B (nonstructural protein 5B) region of HCV; made in house; host or cells: insect cells or E. coli
Assay: Pre-incubation assay method with 3H-UTP (Example 1)
Type: biochemical
Settings: pre-incubation 25° C. 60 min, method of Example 1; for inhibition at 100 µg/mL: 100 μg/ml, read-out: Inhibition rate at a concentration of 100 μg/ml
Method: A HCV RNA-dependent RNA polymerase, template RNA, primer RNA and Mg ion (Mg^2+) are pre-incubated at approximately 25° C. for approximately 1 hour. After that, substrate RNA and a test substance are added to start an enzyme reaction and measure an enzyme activity. IC50 value can be calculated by comparing with an enzyme activity measured in the absence of a test substance as well as the above prior method. An inhibitor can be selected by comparing IC50. An example of a procedure of this method is shown in the later described Example 1.
A cDNA encoding HCV RNA-dependent RNA polymerase was made by use of HCV positive human plasma and HCV RNA-dependent RNA polymerase was expressed using the insect cells or the E. coli. HCV RNA-dependent RNA polymerase in the cell extract was purified by use of an anion exchange chromatography, a heparin affinity chromatography, a polyU affinity chromatography, a cation exchange chromatography and gel filtration chromatography. The purification was performed at 4° C. and Tris buffer (pH 7.5) containing ethylenediaminetetraacetic acid (1 mM), dithiothreitol (10 mM) and glycerol (20%) was used. The enzyme purified was stored at 4° C. until use for the assays.
• 1) The buffer I ^1) (10.5 μl) containing Tris-HCl (100 mM, pH 7.5), MgCl2 (25 mM), dithiothreitol (5 mM), KCl (125 mM) and ethylenediaminetetraacetic acid (5 mM) was transferred to a polypropylene tube and then poly(A)^2) solution (100 μg/ml, 10.5 μl), oligo(U)12 ^3) solution (1 μg/ml, 10.5 μl) and water (8 μl) were added into the tube and mixed. • 2) Next, HCV RNA-dependent RNA polymerase (10.5 μl) was added into the tube and pre-incubated at 25° C. for […]. • 3) The enzyme solution pre-incubated (50 μl) was added to a test compound (5.26 μl/well) dissolved with dimethyl sulfoxide or water in a well of a 96-wells microtiter plate. • 4) Additionally, the buffer II (10.6 μl) containing Tris-HCl (100 mM, pH 7.5), MgCl2 (25 mM), dithiothreitol (5 mM), KCl (125 mM), ethylenediaminetetraacetic acid (5 mM) and UTP • 4) (2.1 μM, 1 μCi ^3H-UTP), was mixed with water (39.4 μl). The mixture (50 μl) was added into the well and mix, and then the enzyme reaction was performed at 25° C. for 30 min. • 5) After enzyme reaction for 30 min, the enzyme reaction was stopped by adding disodium ethylenediaminetetraacetic acid (50 mM, 50 μl). • 6) By use of the cell-harvester, all volume of the enzyme reaction sample was transferred onto a filtermat bound with diethylaminoethyl base (referred to as DEAE-filtermat) and washed twice for 10 sec with sodium phosphate buffer (0.25 M, pH 7.0) and once for 10 sec with de-ionized water. • 7) The DEAE-filtermat was dried at 95° C. for 15 min and transferred into a sample bag with liquid scintillater (10 ml), and then a sample bag was sealed. • 8) The radio activity was measured by a scintillation counter. • 9) The inhibitory rate was calculated from the radioactivity measured (ccpm) as follows. [formula]
The concentration of compound at 50% inhibition (IC50 value) was calculated from the compound concentration used and the inhibitory rate calculated.
When use of a compound at a μg/ml results in A % inhibition and use of a compound at β μg/ml results in B % inhibition on condition of A≧50>B the IC50 value is obtained by the calculation as follows. IC50 (μg/ml)=10^[(50−B)/(A−B)×(log^α^−log^β^)+log^β^]

T1 sequence (P27958 2421-3011): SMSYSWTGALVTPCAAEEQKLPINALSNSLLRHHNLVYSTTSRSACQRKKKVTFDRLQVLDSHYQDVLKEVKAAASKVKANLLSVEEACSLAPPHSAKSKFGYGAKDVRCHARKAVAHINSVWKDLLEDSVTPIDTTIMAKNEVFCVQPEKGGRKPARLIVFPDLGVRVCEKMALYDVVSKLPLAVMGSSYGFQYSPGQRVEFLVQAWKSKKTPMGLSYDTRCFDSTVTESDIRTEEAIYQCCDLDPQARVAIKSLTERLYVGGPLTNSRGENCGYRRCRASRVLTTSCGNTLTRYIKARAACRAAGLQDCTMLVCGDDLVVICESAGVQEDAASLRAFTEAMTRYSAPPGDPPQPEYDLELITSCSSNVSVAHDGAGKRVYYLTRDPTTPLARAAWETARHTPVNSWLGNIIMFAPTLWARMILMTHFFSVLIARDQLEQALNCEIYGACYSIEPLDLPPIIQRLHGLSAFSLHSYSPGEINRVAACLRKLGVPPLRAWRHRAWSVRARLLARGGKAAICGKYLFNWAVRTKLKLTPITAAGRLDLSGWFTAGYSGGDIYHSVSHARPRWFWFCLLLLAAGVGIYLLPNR

inhibition at 100 µg/mL | IC50 | SMILES
90% | 49.8 µM | O=C(O)C(O)=CC(=O)c1ccc(Cl)cc1Cl [Compound I-18]
99% | 4.85 µM | Cc1ccc(C(=O)C=C(O)C(=O)O)cc1 [Compound I-3]
> 99% | 6.76 µM | Nc1ccc(C(=O)C=C(O)C(=O)O)cc1 [Compound I-4]
95% | 29.8 µM | O=C(O)C(O)=CC(=O)c1cc2ccccc2[nH]1 [Compound I-8]
94% | 37.8 µM | COc1cccc(C(=O)C=C(O)C(=O)O)c1 [Compound I-12]
95% | 28.5 µM | O=C(O)C(O)=CC(=O)c1ccc2ccccc2c1 [Compound I-7]
99% | 4.32 µM | O=C(O)C(O)=CC(=O)c1ccc(O)cc1 [Compound I-2]
92% | 46.2 µM | COc1cc(C(=O)C=C(O)C(=O)O)ccc1O [Compound I-17]
97% | 14.6 µM | Cc1ccc(C(=O)C=C(O)C(=O)O)s1 [Compound I-6]
94% | 50.2 µM | Cn1cccc1C(=O)C=C(O)C(=O)O [Compound I-15]
94% | 31.3 µM | O=C(O)C(O)=CC(=O)c1ccc(Cl)cc1 [Compound I-9]
98% | 12 µM | O=C(O)C(O)=CC(=O)c1ccccc1 [Compound I-5]
92% | 55.2 µM | O=C(O)C(O)=CC(=O)c1ccc[nH]1 [Compound I-16]
93% | 32.8 µM | O=C(O)C(O)=CC(=O)c1cccc(Br)c1 [Compound I-14]
92% | 43.9 µM | O=C(O)C(O)=CC(=O)c1cccs1 [Compound I-13]
94% | 35.2 µM | O=C(O)C(O)=CC(=O)c1ccc(F)cc1 [Compound I-11]
94% | 36.3 µM | O=C(O)C(O)=CC(=O)c1ccsc1 [Compound I-10]

Source: US7018796B2, “Preincubation assay methods” (Shionogi & Co., Ltd., priority 2000, dated 2006)
